{"source": "patent US10202361B2", "about": "“Pyridazinones as herbicides” (E I DU PONT DE NEMOURS AND COMPANY, priority 2014, dated 2019)", "assay_type_in_all_cases": "in vivo", "key": {"[1]": {"tested_on": "barnyardgrass (Echinochloa crus-galli)", "test": "Test A pre-/postemergence greenhouse herbicide test", "conditions": "Echinochloa crus-galli, 240 h, 0 to 100 scale (0 no effect, 100 complete control), approx. 10 d, read-out: Plant response rating, Barnyardgrass; for pest or weed control at 125 g/ha: 125 g ai/ha; for pest or weed control at 500 g/ha: 500 g ai/ha", "summary_of_the_method": "(§1)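 Seeds sown in loam–sand blend received a directed preemergence soil spray; postemergence spray was applied at the same time to plants 2–10 cm tall at one- to two-leaf stage. Compounds were in non-phytotoxic solvent with surfactant. Visual injury versus untreated controls after ~10 d in greenhouse, 0–100 scale (100 = complete control).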"}, "corn (Zea mays)": {"tested_on": "corn (Zea mays)", "test": "Test A pre-/postemergence greenhouse herbicide test", "conditions": "Zea mays, 240 h, 0 to 100 scale (0 no effect, 100 complete control), approx. 10 d; for Corn plant response rating (crop injury, 0 = no effect, 100 = complete kill) at 125 g/ha: 125 g ai/ha; for Corn plant response rating (crop injury, 0 = no effect, 100 = complete kill) at 500 g/ha: 500 g ai/ha", "summary_of_the_method": "as §1"}, "[2]": {"tested_on": "crabgrass, Large (large crabgrass, Digitaria sanguinalis)", "test": "Test A pre-/postemergence greenhouse herbicide test", "conditions": "Digitaria sanguinalis, 240 h, 0 to 100 scale (0 no effect, 100 complete control), approx. 10 d, read-out: Plant response rating, Crabgrass, Large; for pest or weed control at 125 g/ha: 125 g ai/ha; for pest or weed control at 500 g/ha: 500 g ai/ha", "summary_of_the_method": "as §1"}, "[3]": {"tested_on": "foxtail, giant (giant foxtail, Setaria faberii)", "test": "Test A pre-/postemergence greenhouse herbicide test", "conditions": "Setaria faberi, 240 h, 0 to 100 scale (0 no effect, 100 complete control), approx. 10 d, read-out: Plant response rating, Foxtail, Giant; for pest or weed control at 125 g/ha: 125 g ai/ha; for pest or weed control at 500 g/ha: 500 g ai/ha", "summary_of_the_method": "as §1"}, "[4]": {"tested_on": "morningglory (Ipomoea spp.)", "test": "Test A pre-/postemergence greenhouse herbicide test", "conditions": "Ipomoea, 240 h, 0 to 100 scale (0 no effect, 100 complete control), approx. 10 d, read-out: Plant response rating, Morningglory; for pest or weed control at 125 g/ha: 125 g ai/ha; for pest or weed control at 500 g/ha: 500 g ai/ha", "summary_of_the_method": "as §1"}, "[5]": {"tested_on": "pigweed (Amaranthus retroflexus)", "test": "Test A pre-/postemergence greenhouse herbicide test", "conditions": "Amaranthus retroflexus, 240 h, 0 to 100 scale (0 no effect, 100 complete control), approx. 10 d, read-out: Plant response rating, Pigweed; for pest or weed control at 125 g/ha: 125 g ai/ha; for pest or weed control at 500 g/ha: 500 g ai/ha", "summary_of_the_method": "as §1"}, "[6]": {"tested_on": "velvetleaf (Abutilon theophrasti)", "test": "Test A pre-/postemergence greenhouse herbicide test", "conditions": "Abutilon theophrasti, 240 h, 0 to 100 scale (0 no effect, 100 complete control), approx. 10 d, read-out: Plant response rating, Velvetleaf; for pest or weed control at 125 g/ha: 125 g ai/ha; for pest or weed control at 500 g/ha: 500 g ai/ha", "summary_of_the_method": "as §1"}, "[7]": {"tested_on": "wheat (Triticum aestivum)", "test": "Test A pre-/postemergence greenhouse herbicide test", "conditions": "Triticum aestivum, 240 h, 0 to 100 scale (0 no effect, 100 complete control), approx. 10 d, read-out: Plant response rating, Wheat; for plant injury at 125 g/ha: 125 g ai/ha; for plant injury at 500 g/ha: 500 g ai/ha", "summary_of_the_method": "as §1"}, "[8]": {"tested_on": "wheat (winter wheat, Triticum aestivum)", "test": "Test C pre-/postemergence greenhouse herbicide test", "conditions": "Triticum aestivum, pre-emergence, Wheat, Preemergence, read-out: Plant response rating", "summary_of_the_method": "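Greenhouse pre- and postemergence screen: compounds in a non-phytotoxic solvent mix plus surfactant were applied to soil/sand-sown seeds or to 1- to 4-leaf plants. Visual rating 13–15 d later, 0 (no effect) to 100 (complete control).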"}, "[9]": {"tested_on": "surinam grass (Brachiaria decumbens)", "test": "Test E pre-/postemergence greenhouse herbicide test", "conditions": "Preemergence, scale 0 to 100"}}, "note": "Where two headings read alike, the source gives them in different places."}
{"smiles": "CCOc1cc(=O)n(-c2ccc(F)cc2)nc1Cc1ccnc(C(F)(F)F)c1", "note": "[Compound 25, 5-ethoxy-2-(4-fluorophenyl)-6-[[2-(trifluoromethyl)-4-pyridinyl]methyl]-3 (2H)-pyridazinone]", "values": [{"measurement": "pest or weed control at 125 g/ha", "setting": "[1]; post-emergence, Postemergence", "value": 80, "unit": "%"}, {"measurement": "pest or weed control at 500 g/ha", "setting": "[1]; post-emergence, Postemergence", "value": 90, "unit": "%"}, {"measurement": "pest or weed control at 125 g/ha", "setting": "[1]; pre-emergence, Preemergence", "value": 90, "unit": "%"}, {"measurement": "pest or weed control at 500 g/ha", "setting": "[1]; pre-emergence, Preemergence", "value": 100, "unit": "%"}, {"measurement": "Corn plant response rating (crop injury, 0 = no effect, 100 = complete kill) at 125 g/ha", "setting": "corn (Zea mays); post-emergence, Postemergence", "value": 70, "unit": "%"}, {"measurement": "Corn plant response rating (crop injury, 0 = no effect, 100 = complete kill) at 500 g/ha", "setting": "corn (Zea mays); post-emergence, Postemergence", "value": 80, "unit": "%"}, {"measurement": "Corn plant response rating (crop injury, 0 = no effect, 100 = complete kill) at 125 g/ha", "setting": "corn (Zea mays); pre-emergence, Preemergence", "value": 50, "unit": "%"}, {"measurement": "Corn plant response rating (crop injury, 0 = no effect, 100 = complete kill) at 500 g/ha", "setting": "corn (Zea mays); pre-emergence, Preemergence", "value": 50, "unit": "%"}, {"measurement": "pest or weed control at 125 g/ha", "setting": "[2]; post-emergence, Postemergence", "value": 80, "unit": "%"}, {"measurement": "pest or weed control at 500 g/ha", "setting": "[2]; post-emergence, Postemergence", "value": 90, "unit": "%"}, {"measurement": "pest or weed control at 125 g/ha", "setting": "[2]; pre-emergence, Preemergence", "value": 100, "unit": "%"}, {"measurement": "pest or weed control at 500 g/ha", "setting": "[2]; pre-emergence, Preemergence", "value": 100, "unit": "%"}, {"measurement": "pest or weed control at 125 g/ha", "setting": "[3]; post-emergence, Postemergence", "value": 70, "unit": "%"}, {"measurement": "pest or weed control at 500 g/ha", "setting": "[3]; post-emergence, Postemergence", "value": 90, "unit": "%"}, {"measurement": "pest or weed control at 125 g/ha", "setting": "[3]; pre-emergence, Preemergence", "value": 100, "unit": "%"}, {"measurement": "pest or weed control at 500 g/ha", "setting": "[3]; pre-emergence, Preemergence", "value": 100, "unit": "%"}, {"measurement": "pest or weed control at 125 g/ha", "setting": "[4]; post-emergence, Postemergence", "value": 40, "unit": "%"}, {"measurement": "pest or weed control at 500 g/ha", "setting": "[4]; post-emergence, Postemergence", "value": 90, "unit": "%"}, {"measurement": "pest or weed control at 125 g/ha", "setting": "[4]; pre-emergence, Preemergence", "value": 30, "unit": "%"}, {"measurement": "pest or weed control at 500 g/ha", "setting": "[4]; pre-emergence, Preemergence", "value": 90, "unit": "%"}, {"measurement": "pest or weed control at 125 g/ha", "setting": "[5]; post-emergence, Postemergence", "value": 100, "unit": "%"}, {"measurement": "pest or weed control at 500 g/ha", "setting": "[5]; post-emergence, Postemergence", "value": 100, "unit": "%"}, {"measurement": "pest or weed control at 125 g/ha", "setting": "[5]; pre-emergence, Preemergence", "value": 100, "unit": "%"}, {"measurement": "pest or weed control at 500 g/ha", "setting": "[5]; pre-emergence, Preemergence", "value": 100, "unit": "%"}, {"measurement": "pest or weed control at 125 g/ha", "setting": "[6]; post-emergence, Postemergence", "value": 60, "unit": "%"}, {"measurement": "pest or weed control at 500 g/ha", "setting": "[6]; post-emergence, Postemergence", "value": 100, "unit": "%"}, {"measurement": "pest or weed control at 125 g/ha", "setting": "[6]; pre-emergence, Preemergence", "value": 40, "unit": "%"}, {"measurement": "pest or weed control at 500 g/ha", "setting": "[6]; pre-emergence, Preemergence", "value": 100, "unit": "%"}, {"measurement": "plant injury at 125 g/ha", "setting": "[7]; post-emergence, Postemergence", "value": 60, "unit": "%"}, {"measurement": "plant injury at 500 g/ha", "setting": "[7]; post-emergence, Postemergence", "value": 70, "unit": "%"}, {"measurement": "plant injury at 125 g/ha", "setting": "[7]; pre-emergence, Preemergence", "value": 30, "unit": "%"}, {"measurement": "plant injury at 500 g/ha", "setting": "[7]; pre-emergence, Preemergence", "value": 60, "unit": "%"}, {"measurement": "plant injury at 62 g/ha", "setting": "[8]; 62 g ai/ha", "value": 40, "unit": "%"}, {"measurement": "plant injury at 125 g/ha", "setting": "[8]; 125 g ai/ha", "value": 50, "unit": "%"}, {"measurement": "plant injury at 250 g/ha", "setting": "[8]; 250 g ai/ha", "value": 70, "unit": "%"}, {"measurement": "Plant response rating: Surinam Grass", "setting": "[9]; 8 g ai/ha", "value": 5}, {"measurement": "Plant response rating: Surinam Grass", "setting": "[9]; 16 g ai/ha", "value": 10}, {"measurement": "Plant response rating: Surinam Grass", "setting": "[9]; 31 g ai/ha", "value": 80}, {"measurement": "Plant response rating: Surinam Grass", "setting": "[9]; 62 g ai/ha", "value": 100}, {"measurement": "Plant response rating: Surinam Grass", "setting": "[9]; 125 g ai/ha", "value": 100}]}
